Assays:
[1] = tested on: JAK2-dependent nuclear translocation of STAT5-GFP in U-2 OS osteosarcoma cells; experiment: STAT5 nuclear translocation assay (Cellomics), rhEpo stimulated U-2 OS STAT5-GFP cells; assay type: cell-based; details: Homo sapiens, U2OS; STAT5 translocation pathway
Excerpt: The medium-throughput (96-well format) cellular automated fluorescence microscopy Cellomics assay can be routinely used to assess the functional activation of Janus Kinases (JAKs), based on the nuclear translocation of their substrate, Signal Transducer and Activator of Transcription (STAT). Nuclear translocation can be monitored either in HT1080 fibrosarcoma cells stably transfected with STAT1 fused to Green Fluorescence Protein (GFP) or in U-2 OS osteosarcoma cells stably transfected with STAT5 fused to Green Fluorescence Protein (GFP). Stimulation of HT1080 cells with interferon-γ (IFN-γ) results in JAK1/JAK2-dependent nuclear translocation of STAT1-GFP, whereas stimulation of U-2 OS cells with recombinant human erythropoietin (rhEpo) results in JAK2-dependent nuclear translocation of STAT5-GFP, both of which can be quantified using the Cellomics Cyto/NucTrans software package. This assay may be used to provide an assessment of the nuclear-cytoplasmic differential (NCD) of STAT-GFP using Hoechst dye to define the boundaries of the nucleus.
U-2 OS osteosarcoma cells may be obtained from ATCC and can be cultured in standard RPMI medium supplemented with 10% FCS and 2 mM L-glutamine. Cells can be stably transfected with STAT5a-GFP using Lipofectamine following the manufacturers' protocol. 24 hours after transfection the medium can be replaced and selected in 400 μg/ml Geneticin. Subsequently, cells can be stably transfected with EpoR using Lipofectamine following the manufacturers' protocol. 24 hours after transfection the medium can be replaced and cells selected in 100 μg/ml Hygromycin B.
Compounds can be dissolved in DMSO to a final stock concentration of 10 mM and stored as aliquots at 4° C. Compounds may be pre-diluted in 100% DMSO at 10 mM, 3 mM 1 mM, 0.3 mM, 0.1 mM, 0.03 mM, 0.01 mM and 0.003 mM. Subsequently, compounds may be diluted in medium and added in 50 μl to the cells. The final compound concentrations tested may be 10 μM, 3 μM 1 μM, 0.3 μM, 0.1 μM, 0.03 μM, 0.01 μM and 0.003 μM and the final DMSO concentration can be 0.1%.
U-2 OS may be seeded at a cell density of 12,000 cells per well in clear-bottom black 96-well Packard View-Plates™. The following day, medium can be removed and replaced with medium containing either the vehicle (DMSO) or increasing concentrations of test compounds for 30 minutes at 37° C. Cells can then be stimulated for 1 hour by adding 10 μl per well of 50 U/ml rhEpo to obtain 5 U/ml of rhEpo as the final concentration. Following treatments, cells can fixed and processed as described above.
The plates can be read on a Cellomics® ArrayscanII automated fluorescence microscope plate reader equipped with a Mercury-Xenon white light illumination source and a Zeiss Axiovert inverted microscope, using the XF100 dichroic/emission filter cube and matching excitation filters, 10× magnification, and a 0.3 numerical aperture objective. Image acquisition and analysis can be performed using a customized protocol based on the ‘NuclearTranslocation’ Bioapplication. For each well, multiple images (fields) can be acquired until a minimum of 1000 cells are counted using two 2 channels: Channel 1 (Hoechst)=focus+nuclear mask, Channel 2 (GFP)=signal quantification in mask areas as outlined below. Nuclei may be first identified based on the Hoechst staining and a mask generated for each nucleus that then serves as a template to generate a circle (eroded inwards by 1 pixel) and a 3 pixel-wide collar-like ring (off-set outwards by 1 pixel), in which the nuclear and cytoplasmic intensity of GFP, respectively, are quantified in the corresponding channel. High content analysis yields numerous measurements per cell and the GFP intensity differential between the nuclear and the cytoplasmic masks may be chosen as a measure of sub-cellular STAT-GFP relocation. The resulting values may be averaged for all cells in the well to return a single measurement plus standard deviation. […]

GST-JAK2(808-1132) = biological target: T1, GST-JAK2(808-1132) (Homo sapiens, UniProt O60674); experiment: JAK2 kinase assay (Caliper mobility shift, LabChip 3000); assay type: biochemical
T1 construct: GST-JAK2(808-1132); purchased Invitrogen (Carlsbad, USA) #4288
T1 sequence (O60674 808-1132): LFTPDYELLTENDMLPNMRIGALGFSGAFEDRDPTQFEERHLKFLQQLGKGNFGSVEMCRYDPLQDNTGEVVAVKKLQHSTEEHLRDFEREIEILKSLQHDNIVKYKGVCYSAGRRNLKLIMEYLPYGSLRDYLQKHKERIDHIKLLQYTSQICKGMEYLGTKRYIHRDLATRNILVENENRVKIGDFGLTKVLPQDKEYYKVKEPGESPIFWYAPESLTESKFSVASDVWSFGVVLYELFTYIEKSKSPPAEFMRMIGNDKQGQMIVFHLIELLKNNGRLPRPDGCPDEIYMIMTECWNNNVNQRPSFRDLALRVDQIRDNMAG
Method in brief: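 Recombinant GST-JAK2(808-1132) kinase domain with FITC-labelled JAK3tide peptide substrate and ATP; 60 min at 30 °C, EDTA stop. Substrate/product ratio read by microfluidic mobility shift; compounds at 8 final concentrations, 10 to 0.003 μM.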

SMILES	IC50 [1] [nM]	IC50 (GST-JAK2(808-1132)) [nM]
Fc1cc(-n2ccc3cnc(Nc4ccnc(OC5CCOCC5)c4)nc32)cc(F)c1CN1CCOCC1 [Example 350, [7-(3,5-Difluoro-4-morpholin-4-ylmethyl-phenyl)-7H-pyrrolo[2,3-d]pyrimidin-2-yl]-[2-(tetrahydro-pyran-4-yloxy)-pyridin-4-yl]-amine]	21.8	≤ 3
CN1CCN(c2ccc(Nc3ncc4ccn(-c5cc(F)c(CN6CCOCC6)c(F)c5)c4n3)nc2)CC1 [Example 377, [7-(3,5-Difluoro-4-morpholin-4-ylmethyl-phenyl)-7H-pyrrolo[2,3-d]pyrimidin-2-yl]-[5-(4-methyl-piperazin-1-yl)-pyridin-2-yl]-amine]	> 2600	49
C[C@@H]1CN(C(=O)c2cccc(Nc3ncc4ccn(-c5cc(F)c(CN6CCOCC6)c(F)c5)c4n3)c2)C[C@H](C)N1 [Example 455, {3-[7-(3,5-Difluoro-4-morpholin-4-ylmethyl-phenyl)-7H-pyrrolo[2,3-d]pyrimidin-2-ylamino]-phenyl}-(cis-3,5-dimethyl-piperazin-1-yl)-methanone]	38	4.3
CN1CCN(Cc2ccc(Nc3ncc4ccn(-c5cc(F)c(CN6CCOCC6)c(F)c5)c4n3)cn2)CC1 [Example 472, [7-(3,5-Difluoro-4-morpholin-4-yl methyl-phenyl)-7H-pyrrolo[2,3-d]pyrimidin-2-yl]-[6-(4-methyl-piperazin-1-ylmethyl)-pyridin-3-yl]-amine]	92	3.6
CN(C)C1CCN(Cc2cc(Nc3ncc4ccn(-c5cc(F)c(CN6CCOCC6)c(F)c5)c4n3)ccn2)C1 (racemic) [Example 427, [7-(3,5-Difluoro-4-morpholin-4-ylmethyl-phenyl)-7H-pyrrolo[2,3-d]pyrimidin-2-yl]-[2-(3-dimethylamino-pyrrolidin-1-ylmethyl)-pyridin-4-yl]-amine]	33.2	≤ 3
Cc1ccc(Nc2ncc3ccn(-c4cc(F)c(CN5CCOCC5)c(F)c4)c3n2)cc1CN1CCOC2(COC2)C1 [Example 358, [7-(3,5-Difluoro-4-morpholin-4-ylmethyl-phenyl)-7H-pyrrolo[2,3-d]pyrimidin-2-yl]-[3-(2,5-dioxa-8-aza-spiro[3,5]non-8-ylmethyl)-4-methyl-phenyl]-amine]	59	7.2
Fc1cc(-n2ccc3cnc(Nc4ccnc(N5CCN(C6CC6)CC5)c4)nc32)cc(F)c1CN1CCOCC1 [Example 456, [2-(4-Cyclopropyl-piperazin-1-yl)-pyridin-4-yl]-[7-(3,5-difluoro-4-morpolin-4-ylmethyl-phenyl)-7H-pyrrolo[2,3-d]pyrimidin-2-yl]-amine]	1.9	≤ 3
Cc1ccc(Nc2ncc3ccn(-c4cc(F)c(CN5CCOCC5)c(F)c4)c3n2)cc1CN1CCC(F)(F)C1 [Example 393, [7-(3,5-Difluoro-4-morpholin-4-ylmethyl-phenyl)-7H-pyrrolo[2,3-d]pyrimidin-2-yl]-[3-(3,3-difluoro-pyrrolidin-1-ylmethyl)-4-methyl-phenyl]-amine]	52	13
COC1CCN(Cc2cc(Nc3ncc4ccn(-c5cc(F)c(CN6CCOCC6)c(F)c5)c4n3)ccc2C)C1 (racemic) [Example 417, [7-(3,5-Difluoro-4-morpholin-4-ylmethyl-phenyl)-7H-pyrrolo[2,3-d]pyrimidin-2-l]-[3-(3-methoxy-pyrrolidin-1-ylmethyl)-4-methyl-phenyl]-amine]	5	≤ 3

Continued, values first:

IC50 [1] [nM]	IC50 (GST-JAK2(808-1132)) [nM]	SMILES
305	≤ 3	Fc1cc(-n2ccc3cnc(Nc4ccnc(CN5CCN(C6CC6)CC5)c4)nc32)cc(F)c1CN1CCOCC1 [Example 407, [2-(4-Cyclopropyl-piperazin-1-ylmethyl)-pyridin-4-yl]-[7-(3,5-difluoro-4-morpholin-4-ylmethyl-phenyl)-7H-pyrrolo[2,3-d]pyrimidin-2-yl]-amine]
245	≤ 3	Cc1ccc(Nc2ncc3ccn(-c4cc(F)c(CN5CCOCC5)c(F)c4)c3n2)cc1CN1CCN(CCN(C)C)CC1 [Example 398, [7-(3,5-Difluoro-4-morpholin-4-ylmethyl-phenyl)-7H-pyrrolo[2,3-d]pyrimidin-2-yl]-{3-[4-(2-dimethylamino-ethyl)-piperazin-1-ylmethyl]-4-methyl-phenyl}-amine]
220	4.8	C[C@@H]1CN(c2ccc(Nc3ncc4ccn(-c5ccc(C(=O)N6CCOCC6)c(F)c5)c4n3)cn2)C[C@H](C)N1 [Example 499, (4-{2-[6-(cis-3,5-Dimethyl-piperazin-1-yl)-pyridin-3-ylamino]-pyrrolo[2,3-d]pyrimidin-7-yl}-2-fluoro-phenyl)-morpholin-4-yl-methanone]
104	15	O=C(c1cc(Nc2ncc3ccn(-c4cc(F)c(CN5CCOCC5)c(F)c4)c3n2)ccn1)N1CCNCC1 [Example 390, {4-[7-(3,5-Difluoro-4-morpholin-4-ylmethyl-phenyl)-7H-pyrrolo[2,3-d]pyrimidin-2-ylamino]-pyridin-2-yl}-piperazin-1-yl-methanone]
16	4.6	Cc1ccc(Nc2ncc3ccn(-c4cc(F)c(CN5CCOCC5)c(F)c4)c3n2)cc1Cn1cc(CN(C)C)nn1 [Example 418, [7-(3,5-Difluoro-4-morpholin-4-ylmethyl-phenyl)-7H-pyrrolo[2,3-d]pyrimidin-2-yl]-[3-(4-dimethylaminomethyl-[1,2,3]triazol-1-ylmethyl)-4-methyl-phenyl]-amine]
1.4	≤ 3	C[C@@H]1CN(c2ccc(Nc3ncc4ccn(-c5cc(F)c(CN6CCCC6=O)c(F)c5)c4n3)cn2)C[C@H](C)N1 [Example 458, 1-(4-{2-[6-(cis-3,5-Dimethyl-piperazin-1-yl)-pyridin-3-ylamino]-pyrrolo[2,3-d]pyrimidin-7-yl}-2,6-difluoro-benzyl)-pyrrolidin-2-one]
6.6	≤ 3	Cc1ccc(Nc2ncc3ccn(-c4cc(F)c(CN5CCOCC5)c(F)c4)c3n2)cc1CN1CCNCC1=O [Example 399, 1-{5-[7-(3,5-Difluoro-4-morpholin-4-ylmethyl-phenyl)-7H-pyrrolo[2,3-d]pyrimidin-2-ylamino]-2-methyl-benzyl}-piperazin-2-one]
3.2	≤ 3	CN(C)CCN1CCN(c2ccc(Nc3ncc4ccn(-c5cc(F)c(CN6CCOCC6)c(F)c5)c4n3)cn2)CC1 [Example 465, [7-(3,5-Difluoro-4-morpholin-4-ylmethyl-phenyl)-7H-pyrrolo[2,3-d]pyrimidin-2-yl]-{6-[4-(2-dimethylamino-ethyl)-piperazin-1-yl]-pyridin-3-yl}-amine]
43.1	< 3	CN1CCOC[C@@H]1c1ccc(Nc2ncc3ccn(-c4cc(F)c(CN5CCOCC5)c(F)c4)c3n2)cc1 [Example 509, [7-(3,5-Difluoro-4-morpholin-4-ylmethyl-phenyl)-7H-pyrrolo[2,3-d]pyrimidin-2-yl]-[4-((S)-4-methyl-morpholin-3-yl)-phenyl]-amine]
69.5	≤ 3	Fc1cc(-n2ccc3cnc(Nc4ccc(OCC5CCOCC5)nc4)nc32)cc(F)c1CN1CCOCC1 [Example 517, [7-(3,5-Difluoro-4-morpholin-4-ylmethyl-phenyl)-7H-pyrrolo[2,3-d]pyrimidin-2-yl]-[6-(tetrahydro-pyran-4-ylmethoxy)-pyridin-3-yl]-amine]

Source: patent US8420657B2 (Novartis AG, priority 2008, dated 2013)
